Patent US11485891B2, “Products and methods for the treatment of mixtures of water and hydrophobic liquids” (B.C. RESEARCH INC., priority 2018, dated 2022)

Key:
[1] = Reduction of oil adhesion on glass beads conditioned with aqueous herder solution; conditions: beads conditioned 1 hour, in oil 1 hour
Description: Glass bead were used as a model substrate. The beads were weighed and transferred into a pre-weighed 60 mL plastic syringe. The beads were immersed in an aqueous solution of herder, C14-L-Phe-COONa, for 1 hour. An oil layer of conventional crude oil was added to the surface of the herder solution above the glass beads. The oil was lowered hydrostatically to immerse the beads in oil for 1 hour after which the oil was raised hydrostatically above the level of the beads. The water above the oil and beads were both removed. The mass of the oil retained on the glass beads was calculated as the difference between the mass of the oil-coated beads and the initial mass of the beads.

[2] = Description: The herder L-phenylalanine, N-(1-oxotetradecyl)-, sodium salt and the gellant oleic-β-alaninamide were assessed for biodegradability in using OECD 301F guideline, manometric respirometer test.
[3] = Herding (slick retraction) of oil already spread on water; conditions: aqueous solution of herder applied to spread oil; images at 1, 5, 10 and 20 minutes
Excerpt: When an oil (e.g., dilbit) is applied to water in a pan, the oil spreads to cover the surface of the water. Application of FA-AA as a salt (e.g., Li, Na or K salts) dissolved in water results in contraction of the oil layer. The pooled oil has reduced surface area and greater slick thickness. This is illustrated in FIG. 9A-E where a solution of the salt of a FA-AA is applied to an aliquot of oil which has been allowed to spread in a pan (FIG. 9A). Application of the aqueous herder solution results in contraction of the slick over time. Images taken at 1, 5, 10 and 20 minutes are shown in FIGS. 9B, 9C, 9D and 9E respectively.
Alternatively, an oil was applied to water in a pan and allowed to spread. A herder (e.g. L-phenylalanine, N-(1-oxotetradecyl)-, sodium salt) was applied to the water to retract the slick (i.e. decrease surface area while increasing the thickness/depth of the oil layer). Overhead photography was used to capture the herding process. The images were processed to determine the area of the slick and allow for calculation of the slick thickness (FIG. 9).

[4] = Herder activity: slick thickness of oil added to water pre-dosed with herder
Description: The herder formulation was pre-dosed into 1 L of water in a flat glass pan under which was a 1×1 cm grid. A known volume of oil was applied to the pre-dosed water. A digital photo of the oil slick was recorded. The image was processed using ImageJ in order to calculate the area of the slick. Since volume and area are known, it is possible to calculate the thickness of the slick as a function of herder dosing. Compounds that maximize the thickness of the slick are considered better oil-herders.
Stearoyl alanine was dissolved in isopropyl alcohol. An aliquot of this solution was added to 1 L of water in a pan. The final dosage of stearoyl alanine was 0.77 mg in 1 L of water. Dilbit (2.27 g) was added. An overhead digital photo was taken of the oil after 10 minutes. The photo was analyzed to determine the area of the oil which could be used to calculate the thickness of the oil layer. The oil slick was determined to be 2.9 mm thick.
Silsurf, (trademark) a commercial herder added to 1 L of water in a glass pan for a final dosing of 1 mg. Dilbit (1.61 g) was added to the water. An overhead digital photo was taken of the oil after 10 minutes. The photo was analyzed to determine the area of the oil which could be used to calculate the thickness of the oil layer. The oil slick was determined to be 2.0 mm thick.

[5] = Oil thickening, aqueous suspension delivery to dilbit-water mixture
Description: Gellants which presented as fine powdery solids were suspended in water (4-5 mL). The suspension was sonicated to reduce the particle size if necessary. The suspension was added to a mixture of 1 mL oil to 4 mL water in a 20 mL vial. The vial was capped and the mixture agitated. Thickening of the oil, likely due to the formation of an emulsion, could be observed within 15 minutes.
Four portions of prior art compound dodecanoyl-L-alanine of differing masses were weighed out and each suspended in 1 mL of water. These four suspensions were added to four separate 20 mL vials of 1:4 mL dilbit and water. […] Oil thickening was evaluated qualitatively.
This experiment was repeated with dodecanoyl-β-alaninamide. Four portions of dodecanoyl-β-alaninamide of differing masses were weighed out and each suspended in 7 mL of water. These four suspensions were added to four separate 20 mL vials of 1:4 mL dilbit and water. […] Oil thickening was evaluated qualitatively.

[6] = Gelling ability, solution phase (co-solvent) delivery to dilbit-water mixture
Description: PSOGs were screened against dilbit, diesel and sunflower. The dilbit used in the Examples herein was prepared by dissolving bitumen in naphtha in a 65:35 ratio of bitumen to naphtha. A typical screening method utilized a 1:4 ratio of hydrophobic liquid to water (i.e., 1 mL oil product to 4 mL water) in a 20 mL vial. The gellant (22.5 mg) was dissolved in a carrier solvent, which was typically methanol, ethanol or isopropanol. Heat was applied to dissolve the solid if necessary. The gellant solution was transferred to the oil-water mixture and the vial was capped. Agitation was applied and the mixture allowed to settle. Gel formation typically presented as the formation of an oil pellet or a thickening of the oil phase.
Four portions of the prior art compound dodecanoyl-L-alanine of differing masses were weighed out and each dissolved in 1 mL of isopropyl alcohol. These four solutions were added to four separate 20 mL vials of 1:4 mL dilbit and water. […] Gel formation was evaluated qualitatively.
This procedure was repeated with dodecanoyl-β-alaninamide. Four portions of dodecanoyl-β-alaninamide of differing masses were weighed out and each dissolved in 1 mL of isopropyl alcohol. These four solutions were added to four separate 20 mL vials containing 1 mL dilbit and 4 mL water. […] Gel formation was evaluated qualitatively.

[7] = Bhattacharya et al., Chemical Communications p. 185, 2001; cited from earlier work
[8] = Gelling activity using mixed organic solvent-water active suspension; conditions: 25 mg in 5 mL 2:3 1,4-butanediol and water, heated and cooled; added to 1:4 oil and seawater, gentle agitation
Description: The gellant oleic-p-alaninamide (25 mg) was suspended in 5 mL of a mixed solvent system composed of 2:3 1,4-butanediol and water. The mixture was heated to dissolve the solids. Upon cooling, the gellant precipitates as a cotton-like mass.

[9] = Gelling activity without organic solvent (active suspension in water); conditions: 25 mg in 5 mL water, heated and cooled; no organic solvent
Description: The gellant oleic-β-alaninamide (25 mg) was suspended 5 mL of water which was dyed pink for visualization purposes. The mixture was heated to dissolve the gellant. Upon cooling, the gellant precipitated as a cotton-like mass which retains the water. […] Upon the addition of diesel, which has been dyed blue, the hydrophobic phase entered the gellant mass upon contact and displaced the dyed water (FIGS. 8B and 8C) to produce the gelled diesel.

For `CCCCCCCCCCCCCC(=O)N[C@@H](Cc1ccccc1)C(=O)[O-].[Na+]` [L-phenylalanine, N-(1-oxotetradecyl)-, sodium salt], the “Average mass of conventional crude retained” value (from here on “Average mass”) ([1]; herder concentration 0.086 g/L) was 1.9 g, the “Average mass” value ([1]; herder concentration 0.57 g/L) was 1.3 g and the “Average mass” value ([1]; herder concentration 2.9 g/L) was 1.6 g. For the same compound, the “Average mass” value ([1]; herder concentration 10 g/L) was 1.8 g, the Biodegradability classification [2] was “readily biodegradable” and the “Herding of dilbit (FIG. 9)” value [3] was “slick retraction”.
For `CCCCCCCCCCCCCCCCCC(=O)N[C@@H](C)C(=O)O` [Stearoyl alanine], the Oil slick thickness ([4]; 0.77 mg in 1 L of water (from isopropyl alcohol solution), dilbit 2.27 g, photo after 10 minutes) was 2.9 mm.
In the case of `CCCCCCCCCCCC(=O)N[C@@H](C)C(=O)O` [dodecanoyl-L-alanine, reference compound], the “Dosing level at which the oil thickened (qualitative evaluation)” value ([5]; solid suspended in water, 1:4 mL dilbit and water, tested at 2.5, 1.25, 0.83 and 0.63% w/v relative to dilbit) is given as “did not thicken the oil at any of the dosing levels tested”, the “Dosing ratio at which a gel formed (qualitative evaluation)” value ([6]; gellant in 1 mL isopropyl alcohol, 1 mL dilbit and 4 mL water, tested at 2.5, 1.25, 0.83 and 0.63% w/v relative to dilbit) is given as 2.5 % w/v and the Gelling ability [7] is given as “gel various hydrophobic organic liquids including petrol”.
For `CCCCCCCC/C=C\CCCCCCCC(=O)NCCC(N)=O` [oleic-β-alaninamide], the “Time to gelling of the oil phase” value [8] was “less than 1 minute”, the Biodegradability classification [2] was “inherently biodegradable” and the “Gelling of dyed diesel (FIG. 8)” value [9] was “gelled diesel”.
In the case of `CCCCCCCCCCCCCC(=O)N[C@@H](C)C(=O)[O-].[Na+]` [sodium tetradecanoylalaninate], the “Behaviour of oil added to a pan of water pre-dosed with herder (FIG. 2)” value ([4]; FA-AA salt pre-dosed into water) is reported as “contraction of the oil slick”.
For oleic alaninamide, the “State of dilbit after PSOG suspended in water (FIG. 3)” value ([5]; dilbit and water) was “thickened state” and the “State of dilbit after PSOG delivered as solution in a water-miscible solvent (FIG. 3)” value ([6]; dilbit and water) was “gel pellet”.
